The target in this experiment is T1, chimp AR (Pan troglodytes, UniProt O97775).
T1 construct: expressed in transfected cells; host or cells: CV-1 cells (ATCC CCL-70), adenoviral transduction
T1 sequence (O97775 1-911): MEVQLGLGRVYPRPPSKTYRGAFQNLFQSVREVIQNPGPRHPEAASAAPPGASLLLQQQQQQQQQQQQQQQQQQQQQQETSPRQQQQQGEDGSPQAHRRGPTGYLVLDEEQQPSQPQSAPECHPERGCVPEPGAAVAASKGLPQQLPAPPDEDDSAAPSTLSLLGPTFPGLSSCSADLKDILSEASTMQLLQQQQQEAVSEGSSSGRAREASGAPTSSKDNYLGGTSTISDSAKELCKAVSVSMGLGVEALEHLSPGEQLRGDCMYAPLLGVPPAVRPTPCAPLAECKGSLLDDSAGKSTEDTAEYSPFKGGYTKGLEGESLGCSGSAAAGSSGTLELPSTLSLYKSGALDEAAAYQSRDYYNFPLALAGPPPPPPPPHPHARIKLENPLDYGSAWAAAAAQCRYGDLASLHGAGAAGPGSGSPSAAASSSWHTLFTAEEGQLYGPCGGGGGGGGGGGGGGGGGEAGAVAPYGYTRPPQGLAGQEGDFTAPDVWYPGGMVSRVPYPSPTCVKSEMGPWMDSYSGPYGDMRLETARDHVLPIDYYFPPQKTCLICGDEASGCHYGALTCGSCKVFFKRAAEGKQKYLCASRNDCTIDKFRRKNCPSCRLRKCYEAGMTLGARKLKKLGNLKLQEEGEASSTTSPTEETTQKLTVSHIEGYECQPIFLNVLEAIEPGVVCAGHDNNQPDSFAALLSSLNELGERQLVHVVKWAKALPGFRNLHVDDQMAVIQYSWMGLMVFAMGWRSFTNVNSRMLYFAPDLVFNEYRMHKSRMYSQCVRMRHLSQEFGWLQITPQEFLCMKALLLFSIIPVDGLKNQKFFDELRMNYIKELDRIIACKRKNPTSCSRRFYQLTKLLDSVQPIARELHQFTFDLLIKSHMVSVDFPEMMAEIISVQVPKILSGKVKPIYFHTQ
As to the kind of experiment: AR transcriptional activation, CV-1 cells. In kind it is cell-based. The procedure:
HFPO-DA was assessed for agonism and antagonism of transcriptional activation for estrogen (ER), androgen (AR), and glucocorticoid receptors (GR). Method details for in vitro transactivation assays for ER ([Wilson et al. 2004a]), AR ([Hartig et al. 2002], [2007]), and GR ([Conley et al. 2017]; [Medlock Kakaley et al. 2018]) have been previously reported. Briefly, for ER activity we utilized the stably transfected T47D-KBluc cell line [publicly available via American Type Culture Collection (ATCC); CRL-2865] according to protocols provided by ATCC with the modification of Dulbecco’s Modified Eagle Media (DMEM) as the cell culture media instead of Roswell Park Memorial Institute (RPMI) media. […] All assays were run in 96-well plates and luminescence was detected using a BMG Fluostar Omega luminometer (BMG Labtech) following 24-h exposure. […] Cellular cytotoxicity across the dosing range was determined for CV-1 cells utilizing the 3-(4,5-dimethylthiazol-2-yl)-2,5-diphenyltetrazolium bromide (MTT) dye ([Mosmann 1983]). HFPO-DA was analyzed using n=2–3 biological replicate assay plates (i.e., unique cell passages) with four technical replicates per treatment per plate. […]

As for `O=C(O)C(F)(OC(F)(F)C(F)(F)C(F)(F)F)C(F)(F)F` (centres unmarked) [HFPO-DA, Hexafluoropropylene oxide dimer acid], the androgen receptor agonism entry (100 pM to 100 μM) is listed as “no androgen or glucocorticoid receptor agonism”. The “androgen receptor antagonism, reduction in luciferase expression” value (100 μM, versus 100 pM DHT) worked out at 42±1%.

(Values after article PMC6768323, “Adverse Maternal, Fetal, and Postnatal Effects of Hexafluoropropylene Oxide Dimer Acid (GenX) from Oral Gestational Exposure in Sprague-Dawley Rats” (Environmental Health Perspectives, 2019).)
